These results are taken from patent US20100278849A1, “PROSTATIC ACID PHOSPHATASE ANTIGENS” (priority 2004, published 2010).

Where “and” joins values, the source holds several entries; their conditions need not be identical. Equal entries are not always repeated. Entries after “also recorded” stand apart in the source; their conditions may differ.

One test has as its target HLA-A2*0201 (Homo sapiens, UniProt P04439, D140Y/D185E/D98H/E176V/E277Q/G131W/G231S/I119V/I121R/I166T/I218V/L300P/L318F/N151K/N90K/P208A/P217A/Q86G/Q94H/R138H/R169H/T345S). The class given is cell-based.
For a further test, the target named is HLA-A2 (Homo sapiens, UniProt P04439, D140Y/D185E/D98H/E176V/E277Q/G131W/G231S/I119V/I121R/I166T/I218V/L300P/L318F/N151K/N90K/P208A/P217A/Q86G/Q94H/R138H/R169H/T345S). To be noted: earlier reports; cited from earlier work.
The test system of another test is HLA-DRβ1*0401. Nature of the test: Proliferation of splenocytes from immunised HLA-DR4 mice with peptide-pulsed BM-DC (tritiated thymidine). The class given is cell-based. On the procedure:
(§1) HLA-A2.1/K^b mice were immunised with an emulsion consisting of 100 μg of the putative class-I peptide epitope and 100 μg of non-specific class-II peptide derived from hepatitis B virus in 50% incomplete Freund's adjuvant (IFA). HLA-DR4- and HLA-DR1-transgenic mice were immunised twice at one week interval with 100 μg of class-II peptide emulsified in 50% incomplete Freund's adjuvant (IFA) and 50% PBS. All vaccine were delivered as a 100 μl intradermal bolus inoculum at the base of the tail.
(§2) 0DC were generated using a method adapted from Inaba et al (Inaba et al. 1992). Briefly, femurs and tibias were harvested aseptically from non-immunised DR1 or DR4 transgenic mice and placed in sterile PBS supplemented with 50 IU/ml penicillin, 50 μg/ml streptomycin, and 0.25 μg/ml fungizone. The marrow was flushed out of the bone using BM-DC media (RPMI 1640 medium supplemented with 2 mM glutamine, 5% FCS, 10 mM Hepes, 501M 2-ME, 50 μg/ml penicillin, 50 μg/ml streptomycin, 0.25 μg/ml fungisone and 10% of supernatant collected from X-63 cells). The cells were washed once in BM-DC media and plated in 24-well plates at 10^6/well in 1 ml DC media and incubated at 37° C. in a 5% CO2 humidified atmosphere. On days 2 and 4, the non-adherent cells (T cells, B cells, granulocytes) were removed, and the remaining cells were cultured in fresh DC medium. After 7-9 days, clusters of loosely adherent DC were dislodged and collected by gently pipetting, before being washed and seeded in 24-well plates at 0.5×10^6 cells/well in 1 ml DC media. Peptides were added at 1 μg/well and the plates were incubated at 37° C. 1 μg/ml of LPS was added after 5 hours, and the plates were incubated overnight at 37° C. in a 5% CO2 in air-humidified atmosphere.
(§3) After 6 days, the spleens from immunised animals were collected and the cells flushed out using T cell media (RPMI+10% FCS+20 mM HEPES buffer+50 μM 2-mercaptoethanol+50 U/ml penicillin/streptomycin+0.25 μg/ml fungizone). The remaining splenic tissue was digested using an enzyme cocktail (0.1 U/ml DNAase (Sigma)+1.6 mg/ml collagenase (Sigma)) for 1 hour at 37° C. The cell suspension obtained was pooled with the flushed cells, washed once, and the splenocytes were plated in 24 well plates with 10 μg/ml of peptide at a density of 2.5×10^6/ml for FVB/N-DR1 or 3.5×10^6/ml for C57BL/6-DR4. Cells were also cultured with an irrelevant peptide as a control. To measure cytokine production, culture supernatants were collected on day 2 and 5 of the culture for the measurement of cytokine by ELISA.
[…] CD8+ T cells were depleted from the cell suspension using anti-CD8+ antibody coupled with magnetic beads (Dynal, UK) as per the manufacturers instructions. Cells were then washed in PBS and resuspended at 5×10^5/ml in T cell medium. 100 μl of T cells was then added to all wells. Anti-DR antibody (L243) or isotype control were added to some wells to confirm the MHC specificity of the T-cell response. LPS-treated dendritic cells were harvested, washed and incubated in 1 ml of DC medium with the addition of 10 íg of peptide at 37° C. for 5 hours. After washing, 10^3 peptide-pulsed DC were added to the relevant wells of lymphocyte cultures in 50 íl media. These plates were then incubated for 3 days at 37° C. in a 5% CO2 in air-humidified atmosphere. Tritriated thymidine was then added to the culture and incubated again for 18 hours. Plates were harvested onto 96 Uni/Filter (Packard), the scintillation liquid (Microscint 0, Packard) was added and the plates were counted on a Top-Count counter (Packard). Results are expressed in counts per minute (cpm) and as a means of the triplicate wells. Statistical analysis was performed using unpaired Student's t test. […]

The next test deals with HLA-DRβ1*0101. The test can be described thus: Proliferation of splenocytes from immunised HLA-DR1 mice with peptide-pulsed BM-DC (tritiated thymidine). The class given is cell-based. As to conditions: responding/total mice, after re-stimulation in vitro with relevant peptide. As for the experimental part:
as §1, §2, §3
Splenocytes from immunised animals cultured for 6 days in the presence of 10 μg of the test peptide were harvested, washed and counted. CD8+ T cells were depleted from the cell suspension using anti-CD8+ antibody coupled with magnetic beads (Dynal, UK) as per the manufacturers instructions. Cells were then washed in PBS and resuspended at 5×10^5/ml in T cell medium. 100 μl of T cells was then added to all wells. Anti-DR antibody (L243) or isotype control were added to some wells to confirm the MHC specificity of the T-cell response. LPS-treated dendritic cells were harvested, washed and incubated in 1 ml of DC medium with the addition of 10 íg of peptide at 37° C. for 5 hours. After washing, 10^3 peptide-pulsed DC were added to the relevant wells of lymphocyte cultures in 50 íl media. […] Plates were harvested onto 96 Uni/Filter (Packard), the scintillation liquid (Microscint 0, Packard) was added and the plates were counted on a Top-Count counter (Packard). […]

The test system of test [1] is IFN-γ. Nature of the test: Cytokine production by splenocytes of immunised C57BL/6-DR4 mice, ELISA. The class given is cell-based. To be noted: relevant versus irrelevant peptide. As for the experimental part: as §3
(§4) Aliquots of supernatants were removed from CTL cultures on days 1 and 5 and on days 2 and 5 from CD4′ T cell cultures and stored at −20° C. until required. ELISA was used to quantitate concentrations of murine IFN-γ and IL-5 (R&D systems, UK).
We further investigated HLA-DR class-II restricted responses to PAP peptides that were predicted to bind to HLA-DR1 and HLA-DR4 according to the evidence-based computer assisted algorithm […]. The peptides displaying high binding scores for both HLA-DR alleles were selected and further studied (Table 1). C57BL/6-DR4 mice were immunised with these predicted HLA-DR-restricted PAP and the proliferative and IFN-γ response to peptide stimulation in vitro was monitored by proliferation assays and cytokine measurements. PAP. 64 and PAP.
On the technique in general: In an ELISA, binding on a coated surface is turned into a signal by an enzyme label.

Test [2] relates to IFN-γ. Nature of the test: IFN-γ ELISPOT of rested CD8-depleted T cells with peptide-pulsed BM-DC. The class given is cell-based, mice. As to conditions: BM-DC pulsed with PAP.161 versus Flu peptide.
Test [3] concerns IFN-γ. The test can be described thus: Cytokine production by splenocytes of immunised FVB/N-DR1 mice, ELISA. The class given is cell-based. On the procedure: as §3, §4

Consider ALDVYNGLL [PAP.299, reference compound], for which the “binding to HLA-A2 (T2 cells)” value at HLA-A2*0201 is “no significant binding; also recorded: unable to confirm the strong HLA-A2 binding”. Besides, the “HLA-A2 binding previously described” value at HLA-A2 was “strong HLA-A2 binding”.
Turning to “CPRFQELESETLKSE (listed as Homo sapiens) [PAP.161]”, the “proliferative response to peptide-pulsed BM-DC” value with HLA-DRβ1*0401 (7 days in vitro stimulation, CD8+ T cells removed, rested 7 days) was “Significant proliferation; also recorded: consistently confirmed; also recorded: responded specifically”. In addition, in the test with HLA-DRβ1*0401 (not blocked by isotype control), the “effect of anti-HLA-DR antibody (L243) on proliferation” value is reported as “blocked in the presence of HLA-DR antibody; also recorded: blocked by the addition of L243 antibody; also recorded: inhibited by the addition of L243 antibody; also recorded: blocked by the presence of L243 antibody”. Further, the “proliferation of splenocytes from immunised HLA-DR4 mice” value in the test with HLA-DRβ1*0401 (re-stimulated in vitro with peptide for 5 days) is reported as “Specific proliferation”. Besides, the “number of HLA-DR4 mice whose splenocytes demonstrated specific proliferation” value in the test on HLA-DRβ1*0401 (responding/total mice, after re-stimulation in vitro with relevant peptide) was 6 out of 8 and 4/6. Also, in the test on HLA-DRβ1*0101, the “number of HLA-DR1 mice whose splenocytes demonstrated specific proliferation” value was 3 out of 6 and 3/6. The “IFN-γ production by splenocytes” value in the test with IFN-γ [1] is “produced in large quantities”. Also, the “IFN-γ production, ELISPOT” value in the test with IFN-γ [2] is recorded as “high amount of IFN-γ in peptide specific manner; also recorded: producing IFN-γ”. The “IFN-γ or IL-50 (cytokine) production of splenocytes” value in the test on IFN-γ [3] was “no production of cytokines could be detected in high enough levels”.
